Data from US9695171B2, “3,4-disubstituted-1 H-pyrrolo[2,3-b]pyridines and 4,5-disubstituted-7H-pyrrolo[2,3-c]pyridazines as LRRK2 inhibitors” (Pfizer Inc., priority 2013, dated 2017).

target: T1, GST-tagged truncated LRRK2 (Homo sapiens, UniProt Q5S007); assay: LRRK2 kinase assay (Lantha Screen); type: biochemical; settings: 1 mM ATP (head); a = geometric mean of >=4 determinations, b = single determination; read-out: LRRK2 LANTHA EC50 at 1 mM ATP; Geometric mean of 2-3 determinations unless otherwise indicated
T1 construct: GST-tagged truncated LRRK2 from Invitrogen (Cat # PV4874); GST; purchased Invitrogen PV4874
T1 sequence (Q5S007 970-2527 limits assumed): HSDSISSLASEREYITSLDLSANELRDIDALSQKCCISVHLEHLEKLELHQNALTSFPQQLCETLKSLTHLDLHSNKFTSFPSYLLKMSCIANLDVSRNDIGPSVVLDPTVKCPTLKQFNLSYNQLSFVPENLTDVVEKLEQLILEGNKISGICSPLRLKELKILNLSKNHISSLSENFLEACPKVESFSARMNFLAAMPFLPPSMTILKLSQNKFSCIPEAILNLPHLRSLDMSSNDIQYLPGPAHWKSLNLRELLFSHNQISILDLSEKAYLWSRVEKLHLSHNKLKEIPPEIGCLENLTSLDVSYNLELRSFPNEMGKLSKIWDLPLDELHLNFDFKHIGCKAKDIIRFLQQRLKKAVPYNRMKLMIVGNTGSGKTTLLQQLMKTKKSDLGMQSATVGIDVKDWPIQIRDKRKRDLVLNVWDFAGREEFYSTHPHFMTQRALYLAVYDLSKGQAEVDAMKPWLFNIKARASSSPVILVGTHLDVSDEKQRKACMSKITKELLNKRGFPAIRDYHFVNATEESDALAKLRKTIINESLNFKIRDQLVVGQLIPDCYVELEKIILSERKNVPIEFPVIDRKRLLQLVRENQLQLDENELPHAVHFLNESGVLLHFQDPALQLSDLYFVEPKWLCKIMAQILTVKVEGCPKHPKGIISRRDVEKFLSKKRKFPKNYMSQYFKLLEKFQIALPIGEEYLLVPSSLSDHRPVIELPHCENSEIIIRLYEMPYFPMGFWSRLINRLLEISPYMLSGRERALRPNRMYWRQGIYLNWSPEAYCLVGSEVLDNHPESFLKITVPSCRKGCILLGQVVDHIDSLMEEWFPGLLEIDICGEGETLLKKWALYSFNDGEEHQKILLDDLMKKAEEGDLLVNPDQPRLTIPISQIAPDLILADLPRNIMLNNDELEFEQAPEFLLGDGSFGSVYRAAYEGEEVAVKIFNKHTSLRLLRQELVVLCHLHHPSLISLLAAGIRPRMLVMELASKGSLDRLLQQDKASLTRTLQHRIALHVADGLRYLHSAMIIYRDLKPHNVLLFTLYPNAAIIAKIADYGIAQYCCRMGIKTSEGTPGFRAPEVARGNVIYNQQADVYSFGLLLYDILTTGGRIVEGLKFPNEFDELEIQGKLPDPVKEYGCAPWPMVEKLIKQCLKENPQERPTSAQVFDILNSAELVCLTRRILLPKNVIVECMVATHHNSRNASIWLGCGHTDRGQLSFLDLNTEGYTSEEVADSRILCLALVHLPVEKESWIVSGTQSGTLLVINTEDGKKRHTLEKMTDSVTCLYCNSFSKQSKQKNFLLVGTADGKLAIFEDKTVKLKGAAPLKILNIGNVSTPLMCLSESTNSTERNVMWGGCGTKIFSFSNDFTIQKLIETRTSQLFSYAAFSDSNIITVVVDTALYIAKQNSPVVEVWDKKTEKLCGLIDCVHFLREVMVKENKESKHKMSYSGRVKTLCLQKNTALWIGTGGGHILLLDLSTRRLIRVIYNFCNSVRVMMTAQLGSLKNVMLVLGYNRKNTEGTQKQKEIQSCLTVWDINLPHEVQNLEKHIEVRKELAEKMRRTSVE
Experimental: LRRK2 kinase activity was measured using Lantha Screen technology from Invitrogen. GST-tagged truncated LRRK2 from Invitrogen (Cat # PV4874) was incubated with a fluorescein-labeled peptide substrate based upon ezrin/radixin/moesin (ERM), also known as LRRKtide (Invitrogen cat # PR8976A), in the presence of a dose response of compound. Upon completion, the assay was stopped and detected with a terbium labeled anti-phospho-ERM antibody (Invitrogen, cat # PR8975A). […] The compound dose response was prepared by diluting compound to a top concentration of 3.16 mM in 100% DMSO and serial diluted by half-log in DMSO 11 times. Aliquots (3.5 μL) of the 100% DMSO dose response were mixed with 46.5 μL water then 1 μL of this mixture was added to the 3 μL substrate mix in the 384-well plate. The kinase reaction was started with 3 μL of a working solution of LRRK2 enzyme at a concentration of 4 μg/mL. […] The reaction was allowed to progress at room temperature for two hours and then stopped with the addition of 7 μL of detection buffer (20 mM Tris pH 7.6, 0.01% NP-40, 0.02% NaN3, 6 mM EDTA with 2 nM terbium labeled anti-phospho-ERM). After an incubation of 1 hour at room temperature, the plate was read on an Envision with an excitation wavelength of 340 nm and a reading emission at both 520 nm and 495 nm. The ratio of the 520 nm and 495 nm emission was used to analyze the data.

Row | SMILES | EC50
1 | Fc1cc(F)cc(-c2c[nH]c3nccc(N4CCOCC4)c23)c1 [Example 34, 3-(3,5-difluorophenyl)-4-(morpholin-4-yl)-1H-pyrrolo[2,3-b]pyridine] | 43.3 nM
2 | Clc1ncccc1-c1c[nH]c2nccc(N3CCOCC3)c12 [Example 35, 3-(2-chloropyridin-3-yl)-4-(morpholin-4-yl)-1H-pyrrolo[2,3-b]pyridine] | 110 nM
3 | c1ccc(-c2c[nH]c3nccc(N4CCOCC4)c23)cc1 [Example 36, 4-(morpholin-4-yl)-3-phenyl-1H-pyrrolo[2,3-b]pyridine] | 49.7 nM
4 | Fc1ccc(-c2c[nH]c3nccc(N4CCOCC4)c23)c(F)c1 [Example 37, 3-(2,4-difluorophenyl)-4-(morpholin-4-yl)-1H-pyrrolo[2,3-b]pyridine] | 147 nM
5 | Cc1cc(F)cc(-c2c[nH]c3nccc(N4CCOCC4)c23)c1 [Example 38, 3-(3-fluoro-5-methylphenyl)-4-(morpholin-4-yl)-1H-pyrrolo[2,3-b]pyridine] | 22.9 nM
6 | N#Cc1cc(F)cc(-c2c[nH]c3nccc(N4CCOCC4)c23)c1 [Example 39, 3-fluoro-5-[4-(morpholin-4-yl)-1H-pyrrolo[2,3-b]pyridin-3-yl]benzonitrile] | 140 nM
7 | COc1ccc(F)c(F)c1-c1c[nH]c2nccc(N3CCOCC3)c12 [Example 40, 3-(2,3-difluoro-6-methoxyphenyl)-4-(morpholin-4-yl)-1H-pyrrolo[2,3-b]pyridine] | 105 nM
8 | N#Cc1cc(-c2c[nH]c3nccc(N4CCOCC4)c23)ccc1F [Example 41, 2-fluoro-5-[4-(morpholin-4-yl)-1H-pyrrolo[2,3-b]pyridin-3-yl]benzonitrile] | 226 nM
9 | COc1cncc(-c2c[nH]c3nccc(N4CCOCC4)c23)c1 [Example 42, 3-(5-methoxypyridin-3-yl)-4-(morpholin-4-yl)-1H-pyrrolo[2,3-b]pyridine] | 240 nM
10 | Cc1[nH]c2nccc(N3CCOCC3)c2c1-c1cccc(C#N)n1 [Example 43, 6-[2-methyl-4-(morpholin-4-yl)-1H-pyrrolo[2,3-b]pyridin-3-yl]pyridine-2-carbonitrile] | 31.9 nM
11 | Cn1cc(-c2c[nH]c3ncc(C#N)c(N4CCOCC4)c23)cn1 [Example 44, 3-(1-methyl-1H-pyrazol-4-yl)-4-(morpholin-4-yl)-1H-pyrrolo[2,3-b]pyridine-5-carbonitrile] | 143 nM
12 | N#Cc1cccc(-c2c[nH]c3ncc(C#N)c(N4CCOCC4)c23)c1F [Example 45, 3-(3-cyano-2-fluorophenyl)-4-(morpholin-4-yl)-1H-pyrrolo[2,3-b]pyridine-5-carbonitrile] | 20.4 nM
13 | Cc1cc(F)cc(-c2c[nH]c3ncc(C#N)c(N4CCOCC4)c23)c1 [Example 46, 3-(3-fluoro-5-methylphenyl)-4-(morpholin-4-yl)-1H-pyrrolo[2,3-b]pyridine-5-carbonitrile] | 29.6 nM
14 | N#Cc1ccc(F)c(-c2c[nH]c3nccc(N4CCOCC4)c23)c1 [Example 47, 4-fluoro-3-[4-(morpholin-4-yl)-1H-pyrrolo[2,3-b]pyridin-3-yl]benzonitrile] | 144 nM
15 | N#Cc1ccc(-c2c[nH]c3nccc(N4CCOCC4)c23)c(F)c1 [Example 48, 3-fluoro-4-[4-(morpholin-4-yl)-1H-pyrrolo[2,3-b]pyridin-3-yl]benzonitrile] | 217 nM
16 | N#Cc1cc(CO)cc(-c2c[nH]c3nccc(N4CCOCC4)c23)c1 [Example 49, 3-(hydroxymethyl)-5-[4-(morpholin-4-yl)-1H-pyrrolo[2,3-b]pyridin-3-yl]benzonitrile] | 50.8 nM
17 | Fc1ccc(-c2c[nH]c3nccc(N4CCOCC4)c23)cc1 [Example 50, 3-(4-fluorophenyl)-4-(morpholin-4-yl)-1H-pyrrolo[2,3-b]pyridine] | 191 nM
18 | Cc1cncc(-c2c(C)[nH]c3nccc(N4CCOCC4)c23)c1 [Example 51, 2-methyl-3-(5-methylpyridin-3-yl)-4-(morpholin-4-yl)-1H-pyrrolo[2,3-b]pyridine] | 191 nM
19 | N#Cc1cccc(-c2c[nH]c3nccc(N4C[C@H]5C[C@@H](C4)O5)c23)c1 [Example 72, 3-[4-(6-oxa-3-azabicyclo[3.1.1]hept-3-yl)-1H-pyrrolo[2,3-b]pyridin-3-yl]benzonitrile] | 68.3 nM

Continued, values first:

Row | EC50 | SMILES
20 | 158 nM | Cc1[nH]c2nccc(N3CCOCC3)c2c1-c1cccc(Cl)c1 [Example 52, 3-(3-chlorophenyl)-2-methyl-4-(morpholin-4-yl)-1H-pyrrolo[2,3-b]pyridine]
21 | 201 nM | Cc1[nH]c2nccc(N3CCOCC3)c2c1-c1ccccc1 [Example 53, 2-methyl-4-(morpholin-4-yl)-3-phenyl-1H-pyrrolo[2,3-b]pyridine]
22 | 91.6 nM | Cc1[nH]c2nccc(N3CCOCC3)c2c1-c1ccccc1F [Example 54, 3-(2-fluorophenyl)-2-methyl-4-(morpholin-4-yl)-1H-pyrrolo[2,3-b]pyridine]
23 | 101 nM | Cc1[nH]c2nccc(N3CCOCC3)c2c1-c1cccc(F)c1 [Example 55, 3-(3-fluorophenyl)-2-methyl-4-(morpholin-4-yl)-1H-pyrrolo[2,3-b]pyridine]
24 | 174 nM | Cc1[nH]c2nccc(N3CCOCC3)c2c1-c1cc(F)cc(C#N)c1 [Example 56, 3-fluoro-5-[2-methyl-4-(morpholin-4-yl)-1H-pyrrolo[2,3-b]pyridin-3-yl]benzonitrile]
25 | 91.9 nM | Cn1cc(-c2c[nH]c3nccc(N4CCCC(O)C4)c23)cn1 (stereo not shown) [Example 57, 1-[3-(1-methyl-1H-pyrazol-4-yl)-1H-pyrrolo[2,3-b]pyridin-4-yl]piperidin-3-ol]
26 | 169 nM | C[C@H]1CN(c2ccnc3[nH]cc(-c4cnn(C)c4)c23)CCO1 [Example 58, 4-[(2S)-2-methylmorpholin-4-yl]-3-(1-methyl-1H-pyrazol-4-yl)-1H-pyrrolo[2,3-b]pyridine]
27 | 197 nM | Cn1cc(-c2c[nH]c3nccc(N4CCCC(F)(F)C4)c23)cn1 [Example 59, 4-(3,3-difluoropiperidin-1-yl)-3-(1-methyl-1H-pyrazol-4-yl)-1H-pyrrolo[2,3-b]pyridine]
28 | 140 nM | Cn1cc(-c2c[nH]c3nccc(N4CCCC(CO)C4)c23)cn1 (stereo not shown) [Example 60, {1-[3-(1-methyl-1H-pyrazol-4-yl)-1H-pyrrolo[2,3-b]pyridin-4-yl]piperidin-3-yl}methanol]
29 | 221 nM | Cn1cc(-c2c[nH]c3nccc(N4C[C@H]5CC[C@@H](C4)O5)c23)cn1 [Example 61, 3-(1-methyl-1H-pyrazol-4-yl)-4-(8-oxa-3-azabicyclo[3.2.1]oct-3-yl)-1H-pyrrolo[2,3-b]pyridine]
30 | 185 nM | CN(C)c1ccnc2[nH]cc(-c3cnn(C)c3)c12 [Example 62, N,N-dimethyl-3-(1-methyl-1H-pyrazol-4-yl)-1H-pyrrolo[2,3-b]pyridin-4-amine]
31 | 71.9 nM | Cn1cc(-c2c[nH]c3nccc(N4CCSCC4)c23)cn1 [Example 63, 3-(1-methyl-1H-pyrazol-4-yl)-4-(thiomorpholin-4-yl)-1H-pyrrolo[2,3-b]pyridine]
32 | 195 nM | Cn1cc(-c2c[nH]c3nccc(N4CCC(F)(F)C4)c23)cn1 [Example 64, 4-(3,3-difluoropyrrolidin-1-yl)-3-(1-methyl-1H-pyrazol-4-yl)-1H-pyrrolo[2,3-b]pyridine]
33 | 7.17 nM | N#Cc1cccc(-c2c[nH]c3nccc(C4=CCOCC4)c23)c1 [Example 65, 3-[4-(3,6-dihydro-2H-pyran-4-yl)-1H-pyrrolo[2,3-b]pyridin-3-yl]benzonitrile]
34 | 24.3 nM | N#Cc1cccc(-c2c[nH]c3nccc(N4CCCC(O)C4)c23)c1 (stereo not shown) [Example 66, 3-[4-(3-hydroxypiperidin-1-yl)-1H-pyrrolo[2,3-b]pyridin-3-yl]benzonitrile]
35 | 22 nM | COCC1CN(c2ccnc3[nH]cc(-c4cccc(C#N)c4)c23)CCO1 (stereo not shown) [Example 67, 3-{4-[2-(methoxymethyl)morpholin-4-yl]-1H-pyrrolo[2,3-b]pyridin-3-yl}benzonitrile]
36 | 30.5 nM | c1cc(N2CCOCC2)c2c(-c3cn[nH]c3)c[nH]c2n1 [Example 68, 4-(morpholin-4-yl)-3-(1H-pyrazol-4-yl)-1H-pyrrolo[2,3-b]pyridine]
37 | 150 nM | N#Cc1cccc(-c2c[nH]c3nccc(N4CCCOCC4)c23)c1 [Example 69, 3-[4-(1,4-oxazepan-4-yl)-1H-pyrrolo[2,3-b]pyridin-3-yl]benzonitrile]
38 | 85.3 nM | N#Cc1cccc(-c2c[nH]c3nccc(N4CCC(O)CC4)c23)c1 [Example 70, 3-[4-(4-hydroxypiperidin-1-yl)-1H-pyrrolo[2,3-b]pyridin-3-yl]benzonitrile]
39 | 95.8 nM | COC1CCCN(c2ccnc3[nH]cc(-c4cccc(C#N)c4)c23)C1 (stereo not shown) [Example 71, 3-[4-(3-methoxypiperidin-1-yl)-1H-pyrrolo[2,3-b]pyridin-3-yl]benzonitrile]
40 | 44.4 nM | N#Cc1cccc(-c2c[nH]c3nccc(N4C[C@@H](F)[C@H](F)C4)c23)c1 [Example 73, 3-{4-[(3R,4R)-3,4-difluoropyrrolidin-1-yl]-1H-pyrrolo[2,3-b]pyridin-3-yl}benzonitrile]
